US9850247B2 (Almac Discovery Limited, priority 2013, dated 2017)
Where a name gives a salt, the structure may show the parent alone.

How the values were obtained:
[1] = system: phospho-cdc2 (Tyr15) in HT-29 cells; test: Effect on phosphorylation of cdc2 at Tyr15, PathScan ELISA (Method 2); type: cell-based; conditions: Homo sapiens, 8 h, eight hours incubation, read-out: HT29 pCDC2 method 2
Procedure: Method 2: Determining the Effect of Compounds on the phosphorylation of cdc2 at Tyr15
The colorectal cancer cell lines HT-29 and HCT-116 were purchased from the ATCC and routinely maintained in McCoy's Medium (Invitrogen) supplemented with 10% Foetal Calf Serum.
The cells were trypsinised from their growing vessel and counted, 100 μL of cell suspension containing 6000 cells was pipetted into black 96 well Co-star plates and incubated overnight to allow adherence to the surface at a temperature of 37° C. and an atmosphere of 5% CO2. Test compounds were formulated in DMSO and diluted in foetal calf serum supplemented medium. Incubating medium was removed by aspiration and diluted drug supplemented medium added to each well.
The plate was returned to the incubator for an additional eight hours at 37° C. and an atmosphere of 5% CO2. Post incubation, the drug supplemented medium was aspirated from each well and the cells were washed once in ice-cold phosphate buffered saline (PBS). 100 μL of cell lysis buffer (Cell Signalling Technologies #9803) containing 20 mM Tris, 150 mM NaCl, 1 mM EDTA, 1 mM EGTA, 1% Triton-X100, 2.5 mM sodium pyrophosphate, 1 mM glycerophosphate, 1 mM Na3VO4 and 1 μg/mL leupeptin was added to each well of the 96 well plate and incubated at 4° C. for 30 min. The samples on the plate were snap frozen at −80° C. until required. Immediately before the continuation of the assay, the sample plate was thawed and centrifuged at 4° C. for 10 min and the supernatant transferred to secondary tubes or 96 well plate.
Cell supernatant was mixed in a ratio of 1:1 with sample dilutent buffer and vortexed for one minute. 100 μL of diluted sample was pipetted into pre-coated plates containing a rabbit polyclonal antibody for phospho-cdc2 (Tyr15) (Cell Signalling Technologies PathScan kit #7176). The plate was sealed and incubated overnight at 4° C.
The plate seal was removed and the well contents aspirated, followed by 3×5 min washes with 200 μL of diluted wash buffer. Between each wash the plate was tapped firmly onto blotting paper to ensure the removal of all kit solution. 100 μL of kit detection antibody was added to each well and the plate re-sealed and incubated at 37° C. for 1 h. Post incubation the plate was washed and processed in a similar manner to that previously described.
100 μL of horseradish peroxidise-linked secondary antibody was added to each test well, the plate sealed and incubated for thirty minutes at 37° C. Post incubation, the plate was washed as previously stated, followed by the addition of 100 μL of 3,3′,5,5′ tetramethylbenzidine (TMB reagent). The plate was sealed and incubated at RT for 30 min.
100 μL of stop solution was added to each well and the underside of the plate wiped with a lint-free tissue, prior to spectrophotometric determination. Absorbance from each well was read at 450 nm within 30 min of the addition of the stop solution.
The percentage of phospho-cdc2 was calculated compared to DMSO control and plotted versus the concentration of inhibitor using GraphPad Prism. Data was fitted using non-linear regression analysis and IC50 values generated.

Wee-1 kinase = molecular target: T1, Wee-1 kinase (Homo sapiens, UniProt P30291); test: Measurement of Wee-1 kinase activity (ADP-Glo luminescent kit); type: biochemical
T1 construct: purchased Invitrogen PV3817
Procedure, shortened: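 ADP-Glo luminescence reads ADP made over 1 h at RT, after an aliquot of 30 μM ATP and 2.0 μg/mL poly(Lys,Tyr 4:1) substrate. Before that, the kinase sat 30 min with inhibitor in Tris-HCl/MgCl2 buffer with BSA and DTT. IC50 came from regression of percent inhibition.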

[2] = CLint estimates using human liver microsomes (Method 4); type: in vitro ADME; conditions: pH 7.4, 1 μM compound, read-out: Mics - CLint (HLM CLint)
Procedure, shortened: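 Depletion measured by LC/MS/MS in MRM mode over 2–50 min after starting reactions with 1 mM NADPH. Incubations used 0.5 mg/mL human liver microsomal protein, 1 μM compound, 0.1% DMSO, pH 7.4 phosphate buffer, 37 °C. ln peak area plotted against time; the gradient gave t½ and intrinsic clearance.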

[3] = system: phospho-cdc2 (Tyr15) in HT-29 cells; test: Effect on Cdc2 phosphorylation at Tyr15, Cell-Based ELISA Base Kit (Method 3); conditions: Homo sapiens, HT-29, 8 h, eight hours incubation, normalized to total cdc2, read-out: HT29 pCDC2 method 3
Procedure, shortened: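 HT-29 cells were treated with compounds for 8 h at 37 °C, then fixed in 4% formaldehyde. Phospho-cdc2 (Tyr15) and total cdc2 were read by dual-fluorogenic cell-based ELISA at 600/450 nm. Phospho signal was normalized to total cdc2 and expressed as % of DMSO control, and EC50 came from non-linear regression.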

T1 sequence (P30291 whole entry): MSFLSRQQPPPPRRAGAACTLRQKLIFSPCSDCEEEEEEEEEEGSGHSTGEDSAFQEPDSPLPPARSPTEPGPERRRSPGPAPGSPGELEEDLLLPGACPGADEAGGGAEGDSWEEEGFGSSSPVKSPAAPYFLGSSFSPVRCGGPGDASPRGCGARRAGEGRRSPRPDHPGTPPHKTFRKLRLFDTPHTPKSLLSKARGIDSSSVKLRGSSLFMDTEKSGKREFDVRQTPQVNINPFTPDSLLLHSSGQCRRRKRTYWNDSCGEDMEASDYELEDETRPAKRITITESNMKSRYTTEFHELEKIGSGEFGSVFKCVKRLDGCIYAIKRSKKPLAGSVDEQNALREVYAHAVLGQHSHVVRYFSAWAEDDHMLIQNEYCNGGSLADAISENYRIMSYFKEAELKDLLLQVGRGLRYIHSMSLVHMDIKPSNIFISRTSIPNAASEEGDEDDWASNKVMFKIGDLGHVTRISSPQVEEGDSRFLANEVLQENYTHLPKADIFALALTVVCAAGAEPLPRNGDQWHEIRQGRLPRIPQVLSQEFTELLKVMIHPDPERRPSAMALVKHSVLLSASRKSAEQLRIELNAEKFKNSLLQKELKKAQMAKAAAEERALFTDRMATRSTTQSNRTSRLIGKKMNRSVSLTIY

Structure (SMILES) | IC50 [1] | IC50 (Wee-1 kinase) | microsomal CLint at 1 μM [2] | EC50 [3]
CN1CCN(Cc2ccc(Nc3ncc4c(n3)N(C)CN(c3c(Cl)cccc3Cl)C4=O)cc2)CC1 [Example 29, 3-(2,6-Dichlorophenyl)-1-methyl-7-((4-((4-methylpiperazin-1-yl)methyl)phenyl)amino)-2,3-dihydropyrimido[4,5-d]pyrimidin-4(1H)-one] | 100 to 1000 nM | 10 to 100 nM | ≥ 50 µL/min/mg | 
CN1CN(c2c(Cl)cccc2Cl)C(=O)c2cnc(Nc3ccc(N4CCNCC4)c(F)c3)nc21 [Example 7, 3-(2,6-Dichlorophenyl)-7-((3-fluoro-4-(piperazin-1-yl)phenyl)amino)-1-methyl-2,3-dihydropyrimido[4,5-d]pyrimidin-4(1H)-one] | 100 to 1000 nM | 10 to 100 nM | ≤ 15 µL/min/mg | 
CC1N(C)c2nc(Nc3ccc(N4CCNCC4)cc3)ncc2C(=O)N1c1c(Cl)cccc1Cl (centres unmarked) [Example 26, 3-(2,6-Dichlorophenyl)-1,2-dimethyl-7-((4-(piperazin-1-yl)phenyl)amino)-2,3-dihydropyrimido[4,5-d]pyrimidin-4(1H)-one] | ≥ 1000 nM | 10 to 100 nM | ≤ 15 µL/min/mg | 
CN1CN(c2c(Cl)cccc2Cl)C(=O)c2cnc(Nc3ccc(N4CCN(CC(=O)O)CC4)cc3)nc21 [Example 4, 2-(4-(4-((6-(2,6-Dichlorophenyl)-8-methyl-5-oxo-5,6,7,8-tetrahydropyrimido[4,5-d]pyrimidin-2-yl)amino)phenyl)piperazin-1-yl)acetic acid hydrochloride] | ≥ 1000 nM | 10 to 100 nM | ≤ 15 µL/min/mg | 
O=C1c2cnc(Nc3ccc(N4CCNCC4)cc3)nc2N2CCCC2N1c1c(Cl)cccc1Cl (centres unmarked) [Example 28, 6-(2,6-Dichlorophenyl)-2-((4-(piperazin-1-yl)phenyl)amino)-6a,7,8,9-tetrahydropyrimido[5,4-e]pyrrolo[1,2-a]pyrimidin-5(6H)-one] | 100 to 1000 nM | 10 to 100 nM | ≤ 15 µL/min/mg | 
CN1CN(c2c(Cl)cccc2Cl)C(=O)c2cnc(Nc3ccc(S(C)(=N)=O)cc3)nc21 (racemic) [Example 30, (rac)-3-(2,6-Dichlorophenyl)-1-methyl-7-((4-(S-methylsulfonimidoyl)phenyl)amino)-2,3-dihydropyrimido[4,5-d]pyrimidin-4(1H)-one] | ≥ 1000 nM | 10 to 100 nM |  | 
CN1CN(c2c(Cl)cccc2Cl)C(=O)c2cnc(Nc3ccc(CN4CCOCC4)cc3)nc21 [Example 27, 3-(2,6-Dichlorophenyl)-1-methyl-7-((4-(morpholinomethyl)phenyl)amino)-2,3-dihydropyrimido[4,5-d]pyrimidin-4(1H)-one] | 100 to 1000 nM | 10 to 100 nM | ≥ 50 µL/min/mg | 
CN1CN(c2c(Cl)cccc2Cl)C(=O)c2cnc(Nc3ccc(N4CCNC[C@H]4CO)cc3)nc21 [Example 127, (S)-3-(2,6-dichlorophenyl)-7-((4-(2-(hydroxymethyl)piperazin-1-yl)phenyl)amino)-1-methyl-2,3-dihydropyrimido[4,5-d]pyrimidin-4(1H)-one] |  | ≤ 10 nM | ≤ 15 µL/min/mg | ≥ 1000 nM
CN1CN(c2c(Cl)cccc2Cl)C(=O)c2cnc(Nc3ccc(N4CCNC(C)(C)C4)cc3)nc21 [Example 96, 3-(2,6-dichlorophenyl)-7-((4-(3,3-dimethylpiperazin-1-yl)phenyl)amino)-1-methyl-2,3-dihydropyrimido[4,5-d]pyrimidin-4(1H)-one] |  | ≤ 10 nM | 15 to 50 µL/min/mg | 100 to 1000 nM
CNCc1cc(Nc2ncc3c(n2)N(C)CN(c2c(Cl)cccc2Cl)C3=O)ccc1N1CCCC1 [Example 137, 3-(2,6-dichlorophenyl)-1-methyl-7-((3-((methylamino)methyl)-4-(pyrrolidin-1-yl)phenyl)amino)-2,3-dihydropyrimido[4,5-d]pyrimidin-4(1H)-one] |  | 10 to 100 nM | ≥ 50 µL/min/mg | 100 to 1000 nM

Now from value to compound, other results behind:

IC50 [1] | IC50 (Wee-1 kinase) | microsomal CLint at 1 μM [2] | Structure (SMILES) | EC50 [3]
100 to 1000 nM | 10 to 100 nM | ≤ 15 µL/min/mg | O=C1c2cnc(Nc3ccc(N4CCNCC4)cc3)nc2NCN1c1c(Cl)cccc1Cl [Example 9, 3-(2,6-Dichlorophenyl)-7-((4-(piperazin-1-yl)phenyl)amino)-2,3-dihydropyrimido[4,5-d]pyrimidin-4(1H)-one] | 
 | 10 to 100 nM | 15 to 50 µL/min/mg | CN1CCN(c2ccc(Nc3ncc4c(n3)N(C)CN(c3c(Cl)cccc3Cl)C4=O)cc2)[C@H](CO)C1 [Example 128, (S)-3-(2,6-dichlorophenyl)-7-((4-(2-(hydroxymethyl)-4-methylpiperazin-1-yl)phenyl)amino)-1-methyl-2,3-dihydropyrimido[4,5-d]pyrimidin-4(1H)-one] | 100 to 1000 nM
 | ≤ 10 nM | 15 to 50 µL/min/mg | CNCc1cc(Nc2ncc3c(n2)N(C)CN(c2c(Cl)cccc2Cl)C3=O)ccc1N(C)C [Example 153, 3-(2,6-dichlorophenyl)-7-((4-(dimethylamino)-3-((methylamino)methyl)phenyl)amino)-1-methyl-2,3-dihydropyrimido[4,5-d]pyrimidin-4(1H)-one] | 100 to 1000 nM
 | ≤ 10 nM | ≤ 15 µL/min/mg | [2H]C([2H])([2H])N1CN(c2c(Cl)cccc2Cl)C(=O)c2cnc(Nc3ccc(N4CCN[C@H](C)C4)cc3)nc21 [Example 78, (R)-3-(2,6-dichlorophenyl)-1-d3-methyl-7-((4-(3-methylpiperazin-1-yl)phenyl)amino)-2,3-dihydropyrimido[4,5-d]pyrimidin-4(1H)-one] | 100 to 1000 nM
 | 10 to 100 nM | ≥ 50 µL/min/mg | CN(C)Cc1cc(Nc2ncc3c(n2)N(C)CN(c2c(Cl)cccc2Cl)C3=O)ccc1N1CCC(F)(F)CC1 [Example 150, 3-(2,6-dichlorophenyl)-7-((4-(4,4-difluoropiperidin-1-yl)-3-((dimethylamino)methyl)phenyl)amino)-1-methyl-2,3-dihydropyrimido[4,5-d]pyrimidin-4(1H)-one] | 100 to 1000 nM
≥ 1000 nM | ≥ 100 nM | 15 to 50 µL/min/mg | CN1c2nc(Nc3ccc4c(c3)CNCC4)ncc2C(=O)N(c2c(Cl)cccc2Cl)C1c1ccccc1 (racemic) [Example 23, (rac)-3-(2,6-Dichlorophenyl)-1-methyl-2-phenyl-7-((1,2,3,4-tetrahydroisoquinolin-7-yl)amino)-2,3-dihydropyrimido[4,5-d]pyrimidin-4(1H)-one] | 
 | ≤ 10 nM | 15 to 50 µL/min/mg | CNCc1cc(Nc2ncc3c(n2)N(C)CN(c2c(Cl)cccc2Cl)C3=O)ccc1N1C[C@@H](C)O[C@@H](C)C1 [Example 148, 3-(2,6-dichlorophenyl)-7-((4-((2S,6R)-2,6-dimethylmorpholino)-3-((methylamino)methyl)phenyl)amino)-1-methyl-2,3-dihydropyrimido[4,5-d]pyrimidin-4(1H)-one] | 100 to 1000 nM
